Source: US8889378B2, “Cytochrome C synthesis inhibitors” (priority 2006, dated 2014)

What was measured:
[1] = test system: system I cytochrome c biogenesis; assay: Metalloprotoporphyrin IX addition, E. coli ΔccmΔhemA with pRGK333 (system I), pRGK332, pHPEX2 and 8 μM heme; assay type: cell-based; conditions: for effect on the level of detectable heme on c4:6×His (holocytochrome c4): metalloporphyrin 8, 12.5 or 25 μM with 8 μM heme
Experimental: (§1) Overnight cultures of an E. coli Δccm strain (or E. coli ΔccmΔhemA) harboring either pRGK333 (system I) or pRGK348 (system II-chuA), pRGK332 (cytochrome c4:6×His), and pHPEX2 (Varnado and Goodwin, 2004) were diluted into fresh LB broth (containing the appropriate antibiotics and 8 μM hemin for the E. coli ΔccmΔhemA strain) and incubated with aeration at 37° C. until the OD600 was approximately 0.5. The mid-log phase cultures were divided into 5 mL aliquots to which IPTG (1 mM) and a metalloprotoporphyrin IX (Zn (II), Sn (IV), Co (III), or Mn (III); 0 μM to 25 μM) were added. Arabinose (0.2%) was added after one hour and incubation continued for an additional three hours. Cells were harvested and soluble protein was extracted using B-PER (Feissner et al., 2006). Cytochrome c4:6×His was purified from 300 μg of total protein and 20 μL was subjected to SDS-PAGE and transferred to nitrocellulose. Prior to heme stain and c4 immunoblot, the nitrocellulose blots were screened for fluorescence on an LAS-1000plus Luminescent Image Analyzer CCD camera system (Fujifilm; Tokyo, Japan).
(§2) Heme stains were performed as described (Feissner et al., 2003) using SuperSignal Femto chemiluminescent substrate (Pierce). Heme stain quantitation used LOLITA II (Low Light Test Array; raytestUSA; Wilmington, N.C.) for standardization of light intensity detection on an LAS1000plus Luminescent Image Analyzer CCD camera system. For Western blotting, extracts were first separated by 12% or 15% SDS-PAGE and electroblotted onto Hybond-C nitrocellulose membranes (Amersham). Protein A peroxidase (Sigma-Aldrich) was used as the secondary label. Detection used the SuperSignal West Femto ECL detection system (Pierce). Chemiluminescence from heme stains and Western blots were detected using an LAS-1000plus Luminescent Image Analyzer CCD camera system (Fujifilm). Protein concentrations were determined using the BCA assay (Pierce) using BSA as a standard. The reduced (10 mM sodium dithionite) and oxidized (10 mM ammonia persulphate) absorption spectra were obtained as previously described (Goldman et al., 1996) using Ni^2+ affinity-purified holocytochrome c4:His. Protein concentrations were determined with the BCA assay kit (Pierce) using BSA as a standard.
The chemical properties of iron may not be uniquely critical for its attachment to apocytochrome c during cytochromes c biogenesis. To test whether any of the cytochromes c biogenesis systems can incorporate other metal porphyrins, four metalloporphyrins were chosen to screen for incorporation into the into the CXXCH motif of a c-type cytochrome: ZnPPIX, SnPPIX, MnPPIX, and CoPPIX. These four metalloporphyrins were tested to determine whether heme can be replaced by other metalloporphyrins in the c-type cytochrome (c4:6×His) reporter. Cultures of E. coli ΔccmΔhemA containing pRGK333 (system I), pRGK332 (c4:6×His), and pHPEX2 were grown overnight in 300 μM ALA and subcultured into fresh LB medium containing 8 μM heme and grown to an OD600 of 0.5. IPTG and metalloporphyrin (8 μM, 12.5 μM, or 25 μM) were then added and growth continued for one hour. Arabinose was added to 0.2% to induce the synthesis of the c4:6×His and growth continued for three more hours before cells were harvested. […] As expected, heme was detected on c4:6×His when either 8 μM or 25 μM heme alone was added (FIG. 15 lanes 1 and 2, respectively).

[2] = test system: system I cytochrome c biogenesis; assay: Metalloprotoporphyrin IX addition, E. coli Δccm with pRGK333 (system I), pRGK332 and pHPEX2; assay type: cell-based; conditions: for level of heme on c4:6×His: system I, up to 100 μM
Experimental: as §1, with “The mid-log phase cultures were divided into 5 mL aliquots to which IPTG (1 mM) and a metalloprotoporphyrin IX (Zn (II), Sn (IV), Co (III), or Mn (III); 0 μM to 25 μM) were added.” left out
as §2
ZnPPIX (and SnPPIX), when present with 8 μM heme, may compete with heme for ChuA-dependent transport into the cell. Using an E. coli Δccm strain (RK103) that has endogenous heme production, it was tested whether ZnPPIX (and SnPPIX) caused a reduction in holocytochrome c4 levels detectable by heme stain. When E. coli Δccm with pRGK333 (system I), pRGK332, and pHPEX2 were treated with ZnPPIX, a decrease in holocytochrome c4:6×His was detected as the concentration of ZnPPIX was increased (FIG. 16A left panel, lanes 1-5).
The three other metal protoporphyrins, SnPPIX, MnPPIX, and CoPPIX, were also tested in the E. coli Δccm background with system I or II. […]

[3] = test system: system II cytochrome c biogenesis (H. pylori CcsBA); assay: Metalloprotoporphyrin IX addition, E. coli Δccm with pRGK348 (system II-chuA) and pRGK332; assay type: cell-based; conditions: for level of heme on c4:6×His: system II, up to 100 μM
Experimental: as §1, with “The mid-log phase cultures were divided into 5 mL aliquots to which IPTG (1 mM) and a metalloprotoporphyrin IX (Zn (II), Sn (IV), Co (III), or Mn (III); 0 μM to 25 μM) were added.” left out
as §2, with “Protein A peroxidase (Sigma-Aldrich) was used as the secondary label. Detection used the SuperSignal West Femto ECL detection system (Pierce).” left out, “The reduced (10 mM sodium dithionite) and oxidized (10 mM ammonia persulphate) absorption spectra were obtained as previously described (Goldman et al., 1996) using Ni^2+ affinity-purified holocytochrome c4:His.” left out
ZnPPIX (and SnPPIX), when present with 8 μM heme, may compete with heme for ChuA-dependent transport into the cell. […] When E. coli Δccm with pRGK333 (system I), pRGK332, and pHPEX2 were treated with ZnPPIX, a decrease in holocytochrome c4:6×His was detected as the concentration of ZnPPIX was increased (FIG. 16A left panel, lanes 1-5). […]

E. coli Δccm = assay: Growth of E. coli Δccm with pRGK333, pRGK332 and pHPEX2 in the presence of ZnPPIX; assay type: cell-based; conditions: 12.5 μM or 25 μM; compared to the same strain without ZnPPIX
Experimental: FIG. 21. Growth of E. coli Dccm containing pRGK333, pRGK332, and HPEX2 in the presence of ZnPPIX. Overnight cultures of E. coli Dccm containing pRGK333 (system I), pRGK332 (cytochrome c4:6×His), and pHPEX2 were diluted into fresh LB broth containing the indicated ZnPPIX ([…]) concentrations for growth measurements.
To rule out that ZnPPIX is not affecting some basic cellular processes, growth studies were performed with E. coli Δccm harboring pRGK333 (system I), pRGK332 (c4:6×His), and pHPEX2.

[4] = test system: system I cytochrome c biogenesis with arabinose-inducible CcmE; assay: NMPP inhibition, RK103 with pRGK345 (system I, ccmE deletion) and pRGK349 (arabinose-inducible c4:His and CcmE); assay type: cell-based, E. coli; conditions: 100 μM NMPP; compared with pRGK333 and constitutively produced CcmE
Experimental: (§3) Five milliliter cultures of E. coli Δccm harboring either the pRGK333 or pRGK334 plasmid and pRGK332, or pRGK345 and pRGK349, were inoculated with 300 μl of overnight culture grown for 3 h to mid-exponential phase (A600=0.6). At this point, IPTG and NMPP (Frontier Scientific) were added to each culture; IPTG was added (1 mM) to induce the synthesis of system I (pRGK333), system II (pRGK334), or ΔccmE (pRGK345) while NMPP (10 mM stock in 50% DMSO) was added to a final concentration of 0-100 μM. After addition of IPTG and NMPP, cultures were grown an additional hour before induction of cytochrome c4:His (and ccmE from pRGK349) with 0.2% arabinose. Cells were grown for an additional 3 h and then harvested by centrifugation. […]
(§4) Heme stains were performed as described (Feissner et al., 2003) using SuperSignal Femto chemiluminescent substrate (Pierce). Heme stain quantitation used LOLITA II (Low Light Test Array; raytestUSA; Wilmington, N.C.) for standardization of light intensity detection on an LAS1000plus Luminescent Image Analyzer CCD camera system. […] Chemiluminescence from heme stains and Western blots were detected using an LAS-1000plus Luminescent Image Analyzer CCD camera system (Fujifilm). Protein concentrations were determined using the BCA assay (Pierce) using BSA as a standard. […] Protein concentrations were determined with the BCA assay kit (Pierce) using BSA as a standard. […]

[5] = test system: system II cytochrome c biogenesis (H. pylori CcsBA); assay: NMPP inhibition of holocytochrome c4:His synthesis, RK103 with pRGK334 (system II) and pRGK332; assay type: cell-based, E. coli; conditions: all trials; heme stain
Experimental: as §3, §4

[6] = test system: system I cytochrome c biogenesis; assay: NMPP-ZnPPIX combined inhibition, E. coli Δccm with pRGK333 (system I), pRGK332 and pHPEX2; assay type: cell-based
Experimental: 100 mL cultures of E. coli Δccm containing pRGK333 (system I), pRGK332 (c4:6×His), and pHPEX2 (Varnado and Goodwin, 2004) were inoculated with 1% (v/v) from an overnight culture and grown with aeration at 37° C. to an OD600 of approximately 0.5. The mid-log phase cultures were divided into 5 mL aliquots to which IPTG (1 mM, to induce the synthesis of the system I proteins and the chuA gene) and NMPP (0 μM to 100 μM) were added. After one hour 0.2% arabinose was added (to induce the synthesis of the B. pertussis c4:6×His) and cultures were incubated an additional three hours. […]
as §4

Molecule: C=Cc1c(C)c2cc3[nH]c(cc4nc(cc5nc(cc1[nH]2)C(C)=C5CCC(=O)[O-])C(CCC(=O)[O-])=C4C)c(C)c3C=C.[Co+2] [CoPPIX, cobalt (III) protoporphyrin IX]
- effect on the level of detectable heme on c4:6×His (holocytochrome c4) [1]: neither CoPPIX nor MnPPIX had any affect
- level of heme on c4:6×His [2]: no decrease
- level of heme on c4:6×His [3]: no decrease

Molecule: C=CC1=C(C)c2cc3[n-]c(cc4[n-]c(cc5nc(cc1n2)C(C)=C5C=C)c(C)c4CCC(=O)[O-])c(CCC(=O)[O-])c3C.[H+].[H+].[Mn+2] [MnPPIX, manganese (III) protoporphyrin IX]
- effect on the level of detectable heme on c4:6×His (holocytochrome c4) [1]: neither CoPPIX nor MnPPIX had any affect
- level of heme on c4:6×His [2]: no decrease
- level of heme on c4:6×His [3]: no decrease

Molecule: C=Cc1c2[n-]c(c1C)/C=c1\[n-]/c(c(C)c1C=C)=C\c1[n-]c(c(CCC(=O)O)c1C)C=c1[n-]/c(c(C)c1CCC(=O)O)=C\2.[Sn+4] [SnPPIX, tin (IV) protoporphyrin IX]
- effect on the level of detectable heme on c4:6×His (holocytochrome c4) [1]: reduced the level of detectable heme
- IC50 ([2]; holocytochrome c4:6×His, heme stain, read-out: concentration required for 50% inhibition of system I): ~65 µM
- IC50 ([3]; holocytochrome c4:6×His, heme stain, read-out: concentration required for 50% inhibition of system II): ~18 µM

Molecule: C=CC1=C(C)c2cc3[n-]c(cc4[n-]c(cc5nc(cc1n2)C(C)=C5C=C)c(C)c4CCC(=O)O)c(CCC(=O)O)c3C.[Zn+2] [ZnPPIX, zinc (II) protoporphyrin IX]
- level of heme on c4:6×His ([1]; 25 μM ZnPPIX with 8 μM heme, heme stain): nearly undetectable
- effect on the level of detectable heme on c4:6×His (holocytochrome c4) [1]: decreasing amounts of holocytochrome c4
- rate or yield of growth (E. coli Δccm): no decrease in the rate or yield of growth
- holocytochrome c4:6×His produced, % of wild type levels ([2]; 8 μM ZnPPIX): approximately 20%

Molecule: N-methylprotoporphyrin [NMPP]
- amount of holocytochrome c4:His [4]: dramatic reduction
- NMPP concentration at which holocytochrome c4:His production was completely abolished [5]: less than 20 μM
- holocytochrome c4:6×His levels ([6]; 60 μM NMPP alone): approximately 54%
- holocytochrome c4:6×His levels ([6]; 100 μM NMPP alone): approximately 30%
